Reference: patent publication US20230265116A1, “DEGRADATION OF (EGFR) BY CONJUGATION OF EGFR INHIBITORS WITH E3 LIGASE LIGAND AND METHODS OF USE” (BEIGENE, LTD., priority 2020, published 2023)
Like-named read-outs stand apart in the source and are kept apart here.

Columns and labels:
Type in all cases: cell-based
[1] = system: EGFR Del19/C797S (H1975-clone #23); assay: EGFR degradation HTRF assay, H1975-clone #23 DC cells; conditions: for H1975 #23 DC Dmax (%): maximum percentage of degradation
Procedure: H1975-clone #28(Del19/T790M/C797S) and H1975-clone #23(Del19/C797S). EGFR-Del19/T790M/C797S and EGFR-Del19/C797S were stably expressed in H1975 cell lines by lentivirus-mediated over-expression, respectively. The EGFR over-expressed cells then underwent gene knockout, in which the EGFR targeting sgRNA was designed to only target the endogenous EGFR copies and preserve the exogenous EGFR copies. Followed by the gene knockout, the edited H1975 cells were seeded in 96 well plates at the concentration of 1 cell/well, cultured for about 2 weeks to allow single clones formation. The formed clones were screened by DNA sequencing and whole exon sequencing analysis for the desired edition. H1975-clone #28 and H1975-clone #23 were finally confirmed as homozygous Del19/T790M/C797S EGFR and Del19/C797S EGFR clones, respectively.
BaF3 WT(wild type), BaF3-LTC(L858R/T790M/C797S) and BaF3-DTC(Del19/T790M/C797S) cells are treated with compounds diluted in 0.2% DMSO cell culture medium and incubate for 16h, 37° C., 5% CO2, H1975-#36, H1975-#28, H1975-#23 and HCC827 cells are treated with compounds diluted in 0.2% DMSO cell culture medium on day 2, incubate for 16h, 37° C., 5% CO2.the final concentriation of compounds in all assay is start with 10 uM, 5-fold dilution, total 8 doses were included.
After 16h treatment, add HTRF lysis buffer to each well; seal the plate and incubate 1 hour at room temperature on a plate shaker; Once the cells are lysed, 16 μL of cell lysate are transferred to a PE 384-well HTRF detection plate; 4 μL of pre-mixed HTRF antibodies are added to each well; Cover the plate with a plate sealer, spin 1000 rpm for 1 min, Incubate overnight at room temperature; Read on BMG PheraStar with HTRF protocol (337 nm-665 nm-620 nm).
The inhibition (degradation) percentage of the compound was calculated by the following equation: Inhibition percentage of Compound=100-100×(Signal-low control)/(High control-low control), wherein signal=each test compound group
High control=Cell group with added DMSO and without compound, indicating microplate readings without EGFR degradation;
Dmax is the maximum percentage of inhibition (degradation).
The IC50 (DC50) value of a compound can be obtained by fitting the following equation
Y=Bottom+(TOP−Bottom)/(1+((IC50/X)^hillslope))
Wherein, X and Y are known values, and IC50, Hillslope, Top and Bottom are the parameters obtained by fitting with software. Y is the inhibition percentage (calculated from the equation), X is the concentration of the compound; IC50 is the concentration of the compound when the 50% inhibition is reached. The smaller the IC50 value is, the stronger the inhibitory ability of the compound is. Vice versa, the higher the IC50 value is, the weaker the inhibitory ability of the compound is; Hillslope represents the slope of the fitted curve, generally around 1*; Bottom represents the minimum value of the curve obtained by data fitting, which is generally 0%±20%; Top represents the maximum value of the curve obtained by data fitting, which is generally 100%±20%. The experimental data were fitted by calculating and analyzing with Dotmatics data analysis software.

[2] = molecular target: T1, EGFR L858R/T790M/C797S (BaF3-LTC cells) (Homo sapiens, UniProt P00533, C797S/L858R/T790M); assay: EGFR degradation HTRF assay, BaF3-LTC cells
T1 construct: expressed in transfected cells; host or cells: BaF3
Summary of the method: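 Cells treated 16 h at 37 °C, 5% CO2 in medium with 0.2% DMSO; top final concentration 10 uM, 5-fold dilution, 8 doses. Lysates read by HTRF (665/620 nm); degradation % versus DMSO high control, DC50 from four-parameter fit, Dmax as maximal degradation.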

[3] = system: EGFR Del19/T790M/C797S (H1975-clone #28); assay: EGFR degradation HTRF assay, H1975-clone #28 DTC cells
Summary of the method: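 The test uses H1975 clonal lines carrying lentiviral mutant EGFR with endogenous copies removed, treated 16h at 37° C., 5% CO2. EGFR left in the lysate is quantified by HTRF, and DC50 is derived from an 8-dose curve starting at 10 uM final.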

[4] = molecular target: T2, EGFR L858R/C797S (BaF3 LC cells) (Homo sapiens, UniProt P00533, C797S/L858R); assay: EGFR degradation HTRF assay, BaF3 LC cells
T2 construct: expressed in transfected cells; host or cells: BaF3

[5] = H1975 #23 DC, 16h treatment, read-out: H1975 #23 DC DC50
[6] = BaF3-LTC cells; EGFR degradation, IC50 (DC50) from curve fit; read-out: DC50(nM) BaF3-LTC
[7] = BaF3-LTC cells; maximum percentage of inhibition (degradation); read-out: Dmax (%) BaF3-LTC
[8] = H1975 # 28 DTC cells; EGFR degradation, IC50 (DC50) from curve fit; read-out: DC50(nM) H1975 # 28 DTC
[9] = H1975 # 28 DTC cells; maximum percentage of inhibition (degradation)
[10] = BaF3 LC, 16h treatment, maximum percentage of degradation; read-out: BaF3 LC Dmax (%)
[11] = BaF3 LC, 16h treatment; read-out: BaF3 LC DC50

T2 sequence (P00533 25-1210 C797S/L858R): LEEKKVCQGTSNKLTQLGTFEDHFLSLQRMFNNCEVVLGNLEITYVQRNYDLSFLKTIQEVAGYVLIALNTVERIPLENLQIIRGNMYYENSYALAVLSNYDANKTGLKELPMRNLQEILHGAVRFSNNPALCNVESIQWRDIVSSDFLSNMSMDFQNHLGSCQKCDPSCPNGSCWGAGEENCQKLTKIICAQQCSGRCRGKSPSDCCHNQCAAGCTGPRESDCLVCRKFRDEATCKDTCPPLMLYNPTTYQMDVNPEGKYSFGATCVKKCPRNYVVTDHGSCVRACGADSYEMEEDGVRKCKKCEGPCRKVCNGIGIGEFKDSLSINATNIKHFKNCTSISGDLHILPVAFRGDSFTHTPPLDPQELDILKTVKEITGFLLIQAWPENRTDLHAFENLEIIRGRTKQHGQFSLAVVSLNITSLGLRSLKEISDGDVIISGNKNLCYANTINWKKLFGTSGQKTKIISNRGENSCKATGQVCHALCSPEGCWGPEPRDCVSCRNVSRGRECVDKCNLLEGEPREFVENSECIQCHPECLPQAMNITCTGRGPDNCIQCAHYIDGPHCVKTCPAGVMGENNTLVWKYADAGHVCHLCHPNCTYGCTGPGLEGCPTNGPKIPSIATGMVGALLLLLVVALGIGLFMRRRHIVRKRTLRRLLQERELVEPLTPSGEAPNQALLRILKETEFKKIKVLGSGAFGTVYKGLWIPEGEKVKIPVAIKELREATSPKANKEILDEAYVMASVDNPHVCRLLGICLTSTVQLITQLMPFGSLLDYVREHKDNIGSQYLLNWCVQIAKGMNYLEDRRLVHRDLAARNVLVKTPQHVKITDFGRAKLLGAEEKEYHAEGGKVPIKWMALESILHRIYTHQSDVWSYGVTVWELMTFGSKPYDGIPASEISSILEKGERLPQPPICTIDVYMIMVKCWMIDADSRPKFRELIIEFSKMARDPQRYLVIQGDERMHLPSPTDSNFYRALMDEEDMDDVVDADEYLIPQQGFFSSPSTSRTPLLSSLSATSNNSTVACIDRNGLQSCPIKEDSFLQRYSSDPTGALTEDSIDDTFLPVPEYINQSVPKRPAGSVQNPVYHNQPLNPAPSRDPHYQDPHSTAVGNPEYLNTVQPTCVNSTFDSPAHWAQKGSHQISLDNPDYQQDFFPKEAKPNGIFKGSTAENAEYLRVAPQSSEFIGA
T1 sequence (P00533 25-1210 T790M/C797S/L858R): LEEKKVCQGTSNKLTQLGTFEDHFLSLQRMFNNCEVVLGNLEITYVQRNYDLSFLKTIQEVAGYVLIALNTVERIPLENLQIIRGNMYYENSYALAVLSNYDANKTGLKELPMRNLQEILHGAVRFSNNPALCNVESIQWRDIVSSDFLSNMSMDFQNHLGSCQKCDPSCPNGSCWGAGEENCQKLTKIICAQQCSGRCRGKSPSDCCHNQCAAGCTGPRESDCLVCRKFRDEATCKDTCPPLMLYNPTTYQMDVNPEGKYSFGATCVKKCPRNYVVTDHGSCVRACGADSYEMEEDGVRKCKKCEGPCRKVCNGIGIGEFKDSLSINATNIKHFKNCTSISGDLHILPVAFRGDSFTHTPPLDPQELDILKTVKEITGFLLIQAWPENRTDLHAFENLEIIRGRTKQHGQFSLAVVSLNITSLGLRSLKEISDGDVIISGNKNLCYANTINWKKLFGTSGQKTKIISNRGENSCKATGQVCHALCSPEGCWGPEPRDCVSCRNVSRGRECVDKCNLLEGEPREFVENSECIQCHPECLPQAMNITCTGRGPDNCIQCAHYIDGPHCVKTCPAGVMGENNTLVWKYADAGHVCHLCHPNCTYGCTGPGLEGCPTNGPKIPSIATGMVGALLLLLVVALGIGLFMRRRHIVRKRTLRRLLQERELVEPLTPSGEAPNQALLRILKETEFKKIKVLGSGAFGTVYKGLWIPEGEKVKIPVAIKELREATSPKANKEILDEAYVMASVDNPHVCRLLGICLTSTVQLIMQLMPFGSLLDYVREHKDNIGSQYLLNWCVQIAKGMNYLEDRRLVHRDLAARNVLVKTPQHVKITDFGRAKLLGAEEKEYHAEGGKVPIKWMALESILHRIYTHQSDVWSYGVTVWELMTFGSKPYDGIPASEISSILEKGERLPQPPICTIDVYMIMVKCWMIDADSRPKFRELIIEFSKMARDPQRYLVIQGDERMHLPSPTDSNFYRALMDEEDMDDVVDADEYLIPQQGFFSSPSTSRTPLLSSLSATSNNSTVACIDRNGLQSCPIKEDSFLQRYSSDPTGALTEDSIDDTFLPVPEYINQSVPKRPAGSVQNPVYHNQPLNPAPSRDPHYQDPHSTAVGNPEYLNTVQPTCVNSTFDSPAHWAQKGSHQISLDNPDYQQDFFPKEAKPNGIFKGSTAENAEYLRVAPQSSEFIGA

Structure (SMILES) | DC50 [1, 5] [nM] | DC50 [2, 6] [nM] | Dmax [2, 7] [%] | DC50 [3, 8] [nM] | Dmax [4, 10] [%] | DC50 [4, 11] [nM] | H1975 #23 DC Dmax (%) ([1]; 16h treatment) | Dmax (%) H1975 # 28 DTC [3, 9] [%] | DC50 ([1]; read-out: H1975 #23 DC DC50, 16h treatment) [nM] | DC50 ([2]; read-out: DC50(nM) BaF3-LTC; BaF3-LTC cells; EGFR degradation, IC50 (DC50) from curve fit) [nM] | Dmax ([2]; read-out: Dmax (%) BaF3-LTC, BaF3-LTC cells; maximum percentage of inhibition (degradation)) [%] | DC50 ([3]; read-out: DC50(nM) H1975 # 28 DTC; H1975 # 28 DTC cells; EGFR degradation, IC50 (DC50) from curve fit) [nM] | Dmax ([4]; BaF3, read-out: BaF3 LC Dmax (%)) [%] | DC50 ([4]; read-out: BaF3 LC DC50; BaF3 LC, 16h treatment) [nM]
CCOc1cc(N2CCC(N3CCN(CCc4ccc(C)c5c4oc(=O)n5C4CCC(=O)NC4=O)CC3)CC2)c(CC)cc1Nc1ncc(Br)c(Nc2ccc3nc(CC)ccc3c2P(C)(C)=O)n1 (stereo not shown) [Example 470, 3-(7-(2-(4-(1-(4-((5-bromo-4-((5-(dimethylphosphoryl)-2-ethylquinolin-6-yl)amino)pyrimidin-2-yl)amino)-5-ethoxy-2-ethylphenyl)piperidin-4-yl)piperazin-1-yl)ethyl)-4-methyl-2-oxobenzo[d]oxazol-3(2H)-yl)piperidine-2,6-dione] | 9540 | 418 | 80.5 | > 10000 | 86.6 | 300 | 64.89 | 39.87 |  |  |  |  |  | 
CCOc1cc(N2CCC(N3CCN(CCc4cccc5c4oc(=O)n5C4CCC(=O)NC4=O)CC3)CC2)c(CC)cc1Nc1ncc(Br)c(Nc2ccc3nc(CC)ccc3c2P(C)(C)=O)n1 (stereo not shown) [Example 473, 3-(7-(2-(4-(1-(4-((5-bromo-4-((5-(dimethylphosphoryl)-2-ethylquinolin-6-yl)amino)pyrimidin-2-yl)amino)-5-ethoxy-2-ethylphenyl)piperidin-4-yl)piperazin-1-yl)ethyl)-2-oxobenzo[d]oxazol-3(2H)-yl)piperidine-2,6-dione] | 12.8 | 9.51 |  | 0.616 |  | 73.4 | 82.45 | 83.08 |  |  |  |  |  | 
CCOc1cc(N2CCC(N3CCN(CC4CN(c5cc(F)cc6c5oc(=O)n6C5CCC(=O)NC5=O)C4)CC3)CC2)c(CC)cc1Nc1ncc(Br)c(Nc2ccc3nc(CC)ccc3c2P(C)(C)=O)n1 (stereo not shown) [Example 479, 3-(7-(3-((4-(1-(4-((5-bromo-4-((5-(dimethylphosphoryl)-2-ethylquinolin-6-yl)amino)pyrimidin-2-yl)amino)-5-ethoxy-2-ethylphenyl)piperidin-4-yl)piperazin-1-yl)methyl)azetidin-1-yl)-5-fluoro-2-oxobenzo[d]oxazol-3(2H)-yl)piperidine-2,6-dione] | 4.91 | 7.8 | 88.8 | 2.81 | 82.7 | 20.3 | 76.53 | 95.6 |  |  |  |  |  | 
CCOc1cc(N2CCC(N3CCN(C(=O)C4CCN(c5cccc6c5oc(=O)n6C5CCC(=O)NC5=O)CC4)CC3)CC2)c(CC)cc1Nc1ncc(Br)c(Nc2ccc3nc(CC)ccc3c2P(C)(C)=O)n1 (stereo not shown) [Example 481, 3-(7-(4-(4-(1-(4-((5-bromo-4-((5-(dimethylphosphoryl)-2-ethylquinolin-6-yl)amino)pyrimidin-2-yl)amino)-5-ethoxy-2-ethylphenyl)piperidin-4-yl)piperazine-1-carbonyl)piperidin-1-yl)-2-oxobenzo[d]oxazol-3(2H)-yl)piperidine-2,6-dione] |  |  |  |  |  |  | 64.14 | 77.65 | 1.06 | 5.27 | 86.5 | 2.14 | 91.9 | 0.871
CCOc1cc(N2CCC(N3CCN(CCc4cc(F)c([C@H]5CCC(=O)NC5=O)c(F)c4)CC3)CC2)c(CC)cc1Nc1ncc(Br)c(Nc2ccc3nc(CC)ccc3c2P(C)(C)=O)n1 [Example 483, (R)-3-(4-(2-(4-(1-(4-((5-bromo-4-((5-(dimethylphosphoryl)-2-ethylquinolin-6-yl)amino)pyrimidin-2-yl)amino)-5-ethoxy-2-ethylphenyl)piperidin-4-yl)piperazin-1-yl)ethyl)-2,6-difluorophenyl)piperidine-2,6-dione] | 7.19 | 26.6 |  | 2.02 |  | 69 | 70.71 | 81.31 |  |  |  |  |  | 
CCc1ccc2c(P(C)(C)=O)c(Nc3nc(Nc4cc(CC)c(N5CCC(N6CCN(CCc7cc(F)c(C8CCC(=O)NC8=O)c(F)c7)CC6)CC5)cc4OC)ncc3Br)ccc2n1 (stereo not shown) [Example 485, 3-(4-(2-(4-(1-(4-((5-bromo-4-((5-(dimethylphosphoryl)-2-ethylquinolin-6-yl)amino)pyrimidin-2-yl)amino)-2-ethyl-5-methoxyphenyl)piperidin-4-yl)piperazin-1-yl)ethyl)-2,6-difluorophenyl)piperidine-2,6-dione] | 10.4 | 26.9 |  | 2.78 |  | 35.1 | 82.7 | 70.65 |  |  |  |  |  | 

More lines, in order of falling DC50 [1, 5], values ahead:

DC50 [1, 5] [nM] | DC50 [2, 6] [nM] | Dmax [2, 7] [%] | DC50 [3, 8] [nM] | Dmax [4, 10] [%] | DC50 [4, 11] [nM] | Structure (SMILES) | H1975 #23 DC Dmax (%) ([1]; 16h treatment) | Dmax (%) H1975 # 28 DTC [3, 9] [%] | DC50 ([1]; read-out: H1975 #23 DC DC50, 16h treatment) [nM] | DC50 ([2]; read-out: DC50(nM) BaF3-LTC; BaF3-LTC cells; EGFR degradation, IC50 (DC50) from curve fit) [nM] | Dmax ([2]; read-out: Dmax (%) BaF3-LTC, BaF3-LTC cells; maximum percentage of inhibition (degradation)) [%] | DC50 ([3]; read-out: DC50(nM) H1975 # 28 DTC; H1975 # 28 DTC cells; EGFR degradation, IC50 (DC50) from curve fit) [nM] | Dmax ([4]; BaF3, read-out: BaF3 LC Dmax (%)) [%] | DC50 ([4]; read-out: BaF3 LC DC50; BaF3 LC, 16h treatment) [nM]
7.2 | 12.9 | 88.7 | 1.86 | 73.4 | 50.8 | CCOc1cc(N2CCC(N3CCN(CCc4cc(F)c(C5CCC(=O)NC5=O)c(F)c4)CC3)CC2)c(CC)cc1Nc1ncc(Br)c(Nc2ccc3nc(C)ccc3c2P(C)(C)=O)n1 (stereo not shown) [Example 482, 3-(4-(2-(4-(1-(4-((5-bromo-4-((5-(dimethylphosphoryl)-2-methylquinolin-6-yl)amino)pyrimidin-2-yl)amino)-5-ethoxy-2-ethylphenyl)piperidin-4-yl)piperazin-1-yl)ethyl)-2,6-difluorophenyl)piperidine-2,6-dione] | 70.91 | 69.65 |  |  |  |  |  | 
2.65 | 12 | 79.2 | 1.15 | 81.1 | 30.4 | CCOc1cc(N2CCC(N3CCN(CCc4cc(F)c(F)c5c4oc(=O)n5C4CCC(=O)NC4=O)CC3)CC2)c(CC)cc1Nc1ncc(Br)c(Nc2ccc3nc(CC)ccc3c2P(C)(C)=O)n1 (stereo not shown) [Example 474, 3-(7-(2-(4-(1-(4-((5-bromo-4-((5-(dimethylphosphoryl)-2-ethylquinolin-6-yl)amino)pyrimidin-2-yl)amino)-5-ethoxy-2-ethylphenyl)piperidin-4-yl)piperazin-1-yl)ethyl)-4,5-difluoro-2-oxobenzo[d]oxazol-3(2H)-yl)piperidine-2,6-dione] | 68.97 | 73.43 |  |  |  |  |  | 
